As usually defined, the EC50 is the concentration that produces a half-maximal response. Read a low EC50 as higher potency in that assay.

The test system of the first experiment is Glo-Response ARE-luc2P HEK293 cell line. The experiment can be described thus: ARE luciferase reporter cell-based assay.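 Also: luciferase signal tracks Nrf2 activation of the ARE once compounds disrupt KEAP1-Nrf2 binding, read with One-Glo reagent, DMSO serving as low control.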 The settings on record: 24 hours, average of results obtained. In general terms: In a reporter assay the amount or activity of a reporter protein is the signal.
`Cc1cnc2c(c1)S(=O)(=O)N(Cc1cc([C@@H](c3ccn4c(C(F)(F)F)nnc4c3C)C(C)(C)C(=O)O)ccc1C)CC1(CCOCC1)O2` (single isomer, unassigned) [Example 407, (*S)-2,2-dimethyl-3-(4-methyl-3-((8′-methyl-1′,1′-dioxido-2,3,5,6-tetrahydrospiro[pyran-4,4′-pyrido[2,3-b][1,4,5]oxathiazepin]-2′(3′H)-yl)methyl)phenyl)-3-(8-methyl-3-(trifluoromethyl)-[1,2,4]triazolo[4,3-a]pyridin-7-yl)propanoic Acid] came in with an EC50 of 1.47 nM.

Still in this experiment, the particulars now being: Homo sapiens, HEK293, 24 h, average of results obtained.
Regarding `Cc1cc2cc([C@H](c3ccc(C)c(CN4CC5(CC5)Oc5nc(OCCN6CCCCC6)c(C)cc5S4(=O)=O)c3)C(C)(C)C(=O)O)n(C)c2nn1` (single isomer, unassigned) [Example 351, (*R)-3-(3,7-Dimethyl-7H-pyrrolo[2,3-c]pyridazine-6-yl)-2,2-dimethyl-3-(4-methyl-3-((8′-methyl-1′,1′-dioxido-7′-(2-(piperidine-1-yl)-ethoxy)spiro[cyclopropane-1,4′-pyrido[2,3-b][1,4,5]oxathiazepin]-2′,(3′H)-yl)methyl)phenyl)propanoic Acid], the EC50 stood at 836 nM.
Still for that read-out and setting: for `Cc1cc2cc([C@@H](c3ccc(C)c(CN4CC5(CC5)Oc5nc(OCCN6CCCC6)c(C)cc5S4(=O)=O)c3)C(C)(C)C(=O)O)n(C)c2nn1` (single isomer, unassigned) [Example 352, (*S)-3-(3,7-Dimethyl-7H-pyrrolo[2,3-c]pyridazine-6-yl)-2,2-dimethyl-3-(4-methyl-3-((8′-methyl-1′,1′-dioxido-7′-(2-(pyrrolidin-1-yl)-ethoxy)spiro[cyclopropane-1,4′-pyrido[2,3-b][1,4,5]oxathiazepin]-2′,(3′H)-yl)methyl)phenyl)propanoic Acid] the value was 43.7 nM; for `Cc1cc2cc([C@H](c3ccc(C)c(CN4CC5(CC5)Oc5nc(OCCN6CCCC6)c(C)cc5S4(=O)=O)c3)C(C)(C)C(=O)O)n(C)c2nn1` (single isomer, unassigned) [Example 353, (*R)-3-(3,7-Dimethyl-7H-pyrrolo[2,3-c]pyridazine-6-yl)-2,2-dimethyl-3-(4-methyl-3-((8′-methyl-1′,1′-dioxido-7′-(2-(pyrrolidin-1-yl)-ethoxy)spiro[cyclopropane-1,4′-pyrido[2,3-b][1,4,5]oxathiazepin]-2′-(3′H)-yl)methyl)phenyl)propanoic Acid], 1410 nM; for `Cc1ccc([C@H](CC(=O)O)c2ccn3c(C(F)(F)F)nnc3c2C)cc1CN1CC2(CCOCC2)Oc2ncc(F)cc2S1(=O)=O` (single isomer, unassigned) [Example 414, (*S)-3-(3-((8′-fluoro-1′,1′-dioxido-2,3,5,6-tetrahydrospiro[pyran-4,4′-pyrido[2,3-b][1,4,5]oxathiazepin]-2′(3′H)-yl)methyl)-4-methylphenyl)-3-(8-methyl-3-(trifluoromethyl)-[1,2,4]triazolo[4,3-a]pyridin-7-yl)propanoic Acid], 11 nM.
The same measure, in the same setting: for `Cc1ccc([C@H](CC(=O)O)c2ccn3c(C(F)(F)F)nnc3c2C)cc1CN1CC2(CCOCC2)Oc2ccc(F)cc2S1(=O)=O` (single isomer, unassigned) [Example 415, (*S)-3-(3-((8-fluoro-1,1-dioxido-2′,3′,5′,6′-tetrahydrospiro[benzo[b][1,4,5]oxathiazepine-4,4′-pyran]-2(3H)-yl)methyl)-4-methylphenyl)-3-(8-methyl-3-(trifluoromethyl)-[1,2,4]triazolo[4,3-a]pyridin-7-yl)propanoic Acid] the value was 5.1 nM; for `Cc1ccc([C@@H](c2ccn3c(C(F)(F)F)nnc3c2C)C(C)C(=O)O)cc1CN1CC2(CCOCC2)Oc2ccc(F)cc2S1(=O)=O` (single isomer, unassigned) [Example 416, (3S*)-3-(3-((8-fluoro-1,1-dioxido-2′,3′,5′,6′-tetrahydrospiro[benzo[b][1,4,5]oxathiazepine-4,4′-pyran]-2(3H)-yl)methyl)-4-methylphenyl)-2-methyl-3-(8-methyl-3-(trifluoromethyl)-[1,2,4]triazolo[4,3-a]pyridin-7-yl)propanoic Acid], 2.53 nM.
`CCn1nnc2c(C)c([C@H](c3ccc(C)c(CN4CC5(CCOCC5)Oc5ncc(C)cc5S4(=O)=O)c3)C(C)(C)C(=O)O)ccc21` (single isomer, unassigned) [Example 421, (*R)-3-(1-ethyl-4-methyl-1H-benzo[d][1,2,3]triazol-5-yl)-2,2-dimethyl-3-(4-methyl-3-((8′-methyl-1′,1′-dioxido-2,3,5,6-tetrahydrospiro[pyran-4,4′-pyrido[2,3-b][1,4,5]oxathiazepin]-2′(3′H)-yl)methyl)phenyl)propanoic Acid] gave an EC50 of 0.24 nM.
Same read-out and setting: then `Cc1ccc([C@@H](c2cc(OC(F)F)c3c(c2)nnn3C)C(C)(C)C(=O)O)cc1CN1CC2(CCOCC2)Oc2ncccc2S1(=O)=O` (single isomer, unassigned) [Example 426], with 0.9 nM; and `Cc1ccc([C@H](c2cc(OC(F)F)c3c(c2)nnn3C)C(C)(C)C(=O)O)cc1CN1CC2(CCOCC2)Oc2ncccc2S1(=O)=O` (single isomer, unassigned) [Example 427, (R*)-3-(7-(difluoromethoxy)-1-methyl-1H-benzo[d][1,2,3]triazol-5-yl)-3-(3-((1′,1′-dioxido-2,3,5,6-tetrahydrospiro[pyran-4,4′-pyrido[2,3-b][1,4,5]oxathiazepin]-2′(3′H)-yl)methyl)-4-methylphenyl)-2,2-dimethylpropanoic Acid], with 293 nM.
Same read-out and setting: then `Cc1ccc([C@H](c2ccc3c(nnn3CC3CC3)c2C)C(C)(C)C(=O)O)cc1CN1CC2(CCOCC2)Oc2ncccc2S1(=O)=O` (single isomer, unassigned) [Example 429, (R*)-3-(1-(cyclopropylmethyl)-4-methyl-1H-benzo[d][1,2,3]triazol-5-yl)-3-(3-((1′,1′-dioxido-2,3,5,6-tetrahydrospiro[pyran-4,4′-pyrido[2,3-b][1,4,5]oxathiazepin]-2′(3′H)-yl)methyl)-4-methylphenyl)-2,2-dimethylpropanoic Acid], with 17800 nM; and `Cc1ccc([C@H](CC(=O)O)c2ccn3c(C(F)F)nnc3c2C)cc1CN1CC2(CCOCC2)Oc2ccc(F)cc2S1(=O)=O` (single isomer, unassigned) [Example 524, (*S)-3-(3-(Difluoromethyl)-8-methyl-[1,2,4]triazolo[4,3-a]pyridin-7-yl)-3-(3-((8-fluoro-1,1-dioxido-2′,3′,5′,6′-tetrahydrospiro[benzo[b][1,4,5]oxathiazepine-4,4′-pyran]-2(3H)-yl)methyl)-4-methylphenyl)propanoic Acid], with 19.7 nM.
The same measure, in the same setting: then `Cc1ccc([C@H](CC(=O)O)c2ccn3c(C(F)F)nnc3c2C)cc1CN1CC2(CC2)Oc2ncc(Cl)cc2S1(=O)=O` (single isomer, unassigned) [Example 530, (*S)-3-(3-((8′-Chloro-1′,1′-dioxidospiro[cyclopropane-1,4′-pyrido[2,3-b][1,4,5]oxathiazepin]-2′(3′H)-yl)methyl)-4-methylphenyl)-3-(3-(difluoromethyl)-8-methyl-[1,2,4]triazolo[4,3-a]pyridin-7-yl)propanoic Acid], with 10.2 nM.

Values taken from US10947252B2, “Inhibitors of KEAP1-Nrf2 protein-protein interaction” (Janssen Pharmaceutica NV, priority 2018, dated 2021).
